According to US11427548B2 (Arvinas Operations, Inc., priority 2015, dated 2022):
Like-named read-outs stand apart in the source and are kept apart here. Each block holds one compound with its values, some of them ahead of it.

Target: T1, Androgen Receptor (Homo sapiens, UniProt P10275)
T1 construct: endogenous in cells; host or cells: VCaP cells
T1 sequence (P10275 1-920): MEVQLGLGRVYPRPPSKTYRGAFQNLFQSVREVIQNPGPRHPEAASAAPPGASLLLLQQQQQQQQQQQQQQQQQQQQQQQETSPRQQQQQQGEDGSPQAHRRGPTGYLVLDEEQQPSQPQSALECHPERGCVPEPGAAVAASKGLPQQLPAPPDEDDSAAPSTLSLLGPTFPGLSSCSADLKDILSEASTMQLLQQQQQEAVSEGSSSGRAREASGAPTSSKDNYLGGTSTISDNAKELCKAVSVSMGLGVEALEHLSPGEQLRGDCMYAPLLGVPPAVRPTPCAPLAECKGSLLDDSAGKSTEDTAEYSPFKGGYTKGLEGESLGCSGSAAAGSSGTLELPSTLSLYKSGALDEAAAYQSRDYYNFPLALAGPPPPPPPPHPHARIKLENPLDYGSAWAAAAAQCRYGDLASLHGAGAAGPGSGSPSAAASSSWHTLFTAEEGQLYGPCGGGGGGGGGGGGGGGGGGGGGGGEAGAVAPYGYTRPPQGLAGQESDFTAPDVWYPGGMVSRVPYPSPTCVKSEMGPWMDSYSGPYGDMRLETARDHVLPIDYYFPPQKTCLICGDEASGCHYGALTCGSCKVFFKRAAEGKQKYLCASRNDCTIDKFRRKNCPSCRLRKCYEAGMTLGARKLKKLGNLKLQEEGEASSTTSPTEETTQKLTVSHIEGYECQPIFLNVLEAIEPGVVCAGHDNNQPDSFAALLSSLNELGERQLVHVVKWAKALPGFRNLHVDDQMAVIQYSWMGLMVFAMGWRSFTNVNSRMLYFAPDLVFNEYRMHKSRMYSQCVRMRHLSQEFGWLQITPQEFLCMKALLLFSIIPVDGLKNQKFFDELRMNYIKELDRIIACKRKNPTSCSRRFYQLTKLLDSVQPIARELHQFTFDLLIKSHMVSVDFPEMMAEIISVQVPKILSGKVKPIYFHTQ
Assay: Androgen Receptor ELISA assay (PathScan AR ELISA) in VCaP cells: AR degradation, Dmax and DC50
Format: cell-based
Summary of the method: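 VCaP cells, 30,000/well, grown ≥3 days in phenol red-free RPMI with 5% charcoal-stripped FBS; compound added in 0.1% DMSO with 0.1 nM R1881, 7 half-log doses, 24 h. Lysate AR quantified by PathScan sandwich ELISA, HRP/TMB read at 450 nm, giving DC50 and Dmax.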

[1] = VCaP cells; Table 35; read-out: VCaP DC50
[2] = VCaP, VCaP cells; Table 35; read-out: VCaP Dmax (%)
[3] = VCaP cells; Table 36; read-out: VCaP DC50
[4] = VCaP, read-out: VCaP Dmax (%), VCaP cells; Table 36
[5] = VCaP, highest percentage of Androgen Receptor degradation observed, VCaP cells (Table 32); read-out: VCaP Dmax (%)
[6] = concentration that caused 50% Androgen Receptor degradation, VCaP cells (Table 32); read-out: VCaP DC50

SMILES: Cc1ncsc1-c1ccc(CNC(=O)[C@@H]2C[C@@H](O)CN2C(=O)[C@@H](NC(=O)COCCCCNc2ccc(-c3ccc(N4C(=S)N(c5ccc(C#N)c(C(F)(F)F)c5)C(=O)C4(C)C)cc3)cn2)C(C)(C)C)cc1 [Example 554]
Dmax (VCaP, read-out: VCaP Dmax (%)): 51 to 70% | DC50 (read-out: VCaP DC50; VCaP cells; Table 35): < 50 nM

SMILES: CC(C)(C)[C@H](NC(=O)COCCCOCCCCOc1ccc(N2C(=S)N(c3ccc(C#N)c(Cl)c3)C(=O)C2(C)C)cc1F)C(=O)N1C[C@H](O)C[C@H]1C(=O)NCc1ccc(-c2cnco2)cc1 [Example 45, (2S,4R)-1-[(2S)-2-{2-[3-(4-{4-[3-(3-chloro-4-cyanophenyl)-5,5-dimethyl-4-oxo-2-sulfanylideneimidazolidin-1-yl]-2-fluorophenoxy}butoxy)propoxy]acetamido}-3,3-dimethylbutanoyl]-4-hydroxy-N-{[4-(1,3-oxazol-5-yl)phenyl]methyl}pyrrolidine-2-carboxamide]
Dmax (VCaP, read-out: VCaP Dmax (%)): > 71% | DC50 (read-out: VCaP DC50; concentration that caused 50% Androgen Receptor degradation, VCaP cells): < 50 nM

SMILES: Cc1ncoc1-c1ccc(CNC(=O)[C@@H]2C[C@@H](O)CN2C(=O)[C@@H](NC(=O)COCCCCOc2ccc(-c3ccc(N4C(=S)N(c5ccc(C#N)c(C(F)(F)F)c5)C(=O)C45CCC5)cc3)cc2)C(C)(C)C)cc1 [Example 119, (2S,4R)-1-[(2S)-2-(2-{4-[4-(4-{7-[4-cyano-3-(trifluoromethyl)phenyl]-8-oxo-6-sulfanylidene-5,7-diazaspiro[3.4]octan-5-yl}phenyl)phenoxy]butoxy}acetamido)-3,3-dimethylbutanoyl]-4-hydroxy-N-{[4-(4-methyl-1,3-oxazol-5-yl)phenyl]methyl}pyrrolidine-2-carboxamide]
Dmax (VCaP, read-out: VCaP Dmax (%)): 51 to 70% | DC50 (read-out: VCaP DC50; concentration that caused 50% Androgen Receptor degradation, VCaP cells (Table 32)): < 50 nM

SMILES: Cc1ncsc1-c1ccc([C@H](C)NC(=O)[C@@H]2C[C@@H](O)CN2C(=O)[C@@H](NC(=O)CN2CCO[C@H](COCCCCCOc3ccc(N4C(=S)N(c5ccc(C#N)c(C(F)(F)F)c5)C(=O)C4(C)C)cc3)C2)C(C)(C)C)cc1 [Example 614, (2S,4R)-1-((S)-2-(2-((S)-2-(((5-(4-(3-(4-cyano-3-(trifluoromethyl)phenyl)-5,5-dimethyl-4-oxo-2-thioxoimidazolidin-1-yl)phenoxy)pentyl)oxy)methyl)morpholino)ace-tamido)-3,3-dimethylbutanoyl)-4-hydroxy-N-((S)-1-(4-(4-methylthiazol-5-yl)phenyl)ethyl)pyrrolidine-2-carboxamide]
Dmax (VCaP, read-out: VCaP Dmax (%)): 26 to 50% | DC50 (read-out: VCaP DC50; VCaP cells; Table 36): > 501 nM

SMILES: Cc1ncsc1-c1ccc([C@H](C)NC(=O)[C@@H]2C[C@@H](O)CN2C(=O)[C@H](NC(=O)COCCCCCNc2ccc(C(=O)N[C@H]3C(C)(C)[C@H](Oc4ccc(C#N)c(Cl)c4)C3(C)C)cc2)C(C)(C)C)cc1 [Example 457]
DC50 [1]: > 501 nM | Dmax [2]: < 25%

SMILES: Cc1ncoc1-c1ccc(CNC(=O)[C@@H]2C[C@@H](O)CN2C(=O)[C@@H](NC(=O)COCCCCCOc2ccc(C(=O)N[C@H]3C(C)(C)[C@H](Oc4ccc(C#N)c(C(F)(F)F)c4)C3(C)C)cc2)C(C)(C)C)cc1 [Example 154, (2S,4R)-1-[(2S)-3,3-dimethyl-2-(2-{[5-(4-{[trans--3-[4-cyano-3-(trifluoromethyl)phenoxy]-2,2,4,4-tetramethylcyclobutyl]carbamoyl}phen-oxy)pentyl]oxy}acetamido)butanoyl]-4-hydroxy-N-{[4-(4-methyl-1,3-oxazol-5-yl)phenyl]methyl}pyrrolidine-2-carboxamide]
Dmax [5]: > 71% | DC50 [6]: < 50 nM

SMILES: Cc1ncoc1-c1ccc(CNC(=O)[C@@H]2C[C@@H](O)CN2C(=O)[C@@H](NC(=O)COCCOc2ccc(Oc3ccc(C(=O)N[C@H]4C(C)(C)[C@H](Oc5ccc(C#N)c(Cl)c5)C4(C)C)cc3)cc2)C(C)(C)C)cc1 [Example 186, (2S,4R)-1-[(2S)-3,3-dimethyl-2-(2-{2-[4-(4-{[trans-3-(3-chloro-4-cyanophenoxy)-2,2,4,4-tetramethylcyclobutyl]carbamoyl}phenoxy)phenoxy]ethoxy}acetamido)butanoyl]-4-hydroxy-N-{[4-(4-methyl-1,3-oxazol-5-yl)phenyl]methyl}pyrrolidine-2-carboxamide]
Dmax [5]: > 71% | DC50 [6]: < 50 nM

Other lines, results leading:

DC50 [1]: < 50 nM | Dmax [2]: > 71%
SMILES: Cc1ncsc1-c1ccc(CNC(=O)[C@@H]2C[C@@H](O)CN2C(=O)[C@@H](NC(=O)COCCNc2ccc(-c3c(F)cc(C(=O)N[C@H]4C(C)(C)[C@H](Oc5ccc(C#N)c(Cl)c5)C4(C)C)cc3F)cn2)C(C)(C)C)cc1 [Example 513]

DC50 [3]: < 50 nM | Dmax [4]: 51 to 70%
SMILES: Cc1ncsc1-c1ccc([C@H](C)NC(=O)[C@@H]2C[C@@H](O)CN2C(=O)[C@H](C(C)C)n2cc(-c3ccnc(OC4CN(c5ncc(C(=O)NC6C(C)(C)C(Oc7ccc(C#N)c(Cl)c7)C6(C)C)cn5)C4)c3)cn2)cc1 (stereo partly drawn) [Example 604, N-(3-(3-chloro-4-cyanophenoxy)-2,2,4,4-tetramethylcyclobutyl)-2-(3-((4-(1-((S)-1-((2S,4R)-4-hydroxy-2-(((S)-1-(4-(4-methylthiazol-5-yl)phenyl)ethyl)carbam-oyl)pyrrolidin-1-yl)-3-methyl-1-oxobutan-2-yl)-1H-pyrazol-4-yl)pyridin-2-yl)oxy)azetidin-1-yl)pyrimidine-5-carboxamide]

VCaP Dmax (%) (VCaP cells; Table 36): + (Dmax ≤ 25%) | DC50 [3]: < 50 nM
SMILES: Cc1ncsc1-c1ccc(CNC(=O)[C@@H]2C[C@@H](O)CN2C(=O)C(NC(=O)COCCN2CCN(c3ccc(C(=O)N[C@H]4C(C)(C)[C@H](Oc5ccc(C#N)c(C(F)(F)F)c5)C4(C)C)cn3)C(=O)C2)C(C)(C)C)cc1 (stereo partly drawn) [Example 711, N-((1r,3r)-3-(4-cyano-3-(trifluoromethyl)phenoxy)-2,2,4,4-tetramethylcyclobutyl)-6-(4-(2-(2-(((S)-1-((2S,4R)-4-hydroxy-2-((4-(4-methylthiazol-5-yl)benzyl)carbamoyl)pyrrolidin-1-yl)-3,3-dimethyl-1-oxobutan-2-yl)amino)-2-oxoethoxy)ethyl)-2-oxopiperazin-1-yl)nicotinamide]

DC50 [1]: 51 to 500 nM | Dmax [2]: > 71%
SMILES: Cc1ncsc1-c1ccc([C@@H](CN2CCCC2)NC(=O)[C@@H]2C[C@@H](O)CN2C(=O)[C@@H](NC(=O)COCCCCCOc2ccc(C(=O)N[C@H]3C(C)(C)[C@H](Oc4ccc(C#N)c(Cl)c4)C3(C)C)cc2)C(C)(C)C)cc1 [Example 466]

DC50 [3]: > 501 nM | Dmax [4]: < 25%
SMILES: Cc1ncsc1-c1ccc([C@H](C)NC(=O)[C@@H]2C[C@H](F)CN2C(=O)[C@@H](NC(=O)COCCN2CCN(c3ccc(C(=O)N[C@H]4C(C)(C)[C@H](Oc5ccc(C#N)c(Cl)c5)C4(C)C)cn3)CC2)C(C)(C)C)cc1 [Example 721, N-((1r,3r)-3-(3-chloro-4-cyanophenoxy)-2,2,4,4-tetramethylcyclobutyl)-6-(4-(2-(2-(((S)-1-((2S,4S)-4-fluoro-2-(((S)-1-(4-(4-methylthiazol-5-yl)phenyl)ethyl)carbam-oyl)pyrrolidin-1-yl)-3,3-dimethyl-1-oxobutan-2-yl)amino)-2-oxoethoxy)ethyl)pipera-zin-1-yl)nicotinamide]

DC50 [1]: > 501 nM | Dmax [2]: 26 to 50%
SMILES: CC(C)(C)[C@H](NC(=O)COCCCCCNc1ccc(C(=O)N[C@H]2C(C)(C)[C@H](Oc3ccc(C#N)c(Cl)c3)C2(C)C)cc1)C(=O)N1C[C@H](O)C[C@H]1C(=O)NCc1ccc(C2=CCNCC2)cc1 [Example 499]

DC50 [1]: < 50 nM | Dmax [2]: > 71%
SMILES: CC(C)(C)[C@H](NC(=O)COCCCCOc1ccc(C(=O)N[C@H]2C(C)(C)[C@H](Oc3ccc(C#N)c(Cl)c3)C2(C)C)cc1)C(=O)N1C[C@H](O)C[C@H]1C(=O)NCc1ccc(-n2cccn2)cc1 [Example 568]

DC50 [1]: < 50 nM | Dmax [2]: 51 to 70%
SMILES: CC(C)(C)[C@H](NC(=O)COCCCCCNc1ccc(C(=O)N[C@H]2C(C)(C)[C@H](Oc3ccc(C#N)c(Cl)c3)C2(C)C)cc1)C(=O)N1C[C@H](O)C[C@H]1C(=O)NCc1ccc(-c2cnccn2)cc1 [Example 532]
